Measurements reported in patent publication US20050009886A1, “1,4-Dihydropyridine derivative with a guaiacoxypropanolamine and/or phenoxypropanolamine moiety” (priority 1998, published 2005).

Assays:
β2-adrenoceptor = target: T1, β2-adrenoceptor (Cavia porcellus, UniProt Q8K4Z4); test: Direct effect (intrinsic sympathomimetic activity) on reserpine pretreated isolated tracheal; design: species or system guinea pig; settings: cumulative 10^−10˜3×10^−6 M, reserpine pretreated tracheal
T1 construct: a portion of tracheal approximately 4 cm long was removed; from tissue; host or cells: isolated trachea of reserpine-pretreated guinea pigs
Method: 18˜24 hours before the experiment, 5 mg/kg of reserpine was injected via abdominal cavity to remove all endogenous catecholamines. Prior experiment, guinea pigs were sacrificed, the tracheal was immediately removed and placed in Kreb's solution aerated with air mixture and maintained at room temperature of 22˜25° C. […] Then the tissue was repeatedly washed with Kreb's solution.

β-adrenoreceptor (β1) [1] = target: T2, β-adrenoreceptor (β1) (Rattus norvegicus, UniProt P18090); test: Isolated right atrium, L-isoproterenol-induced heart rate increase (pA2); design: species or system Wistar rat
T2 construct: The right and left atria were then separated; from tissue; host or cells: isolated rat right atrium (spontaneously beating) and left atrium (electrically paced)
Method: The right and left atria were then separated. The spontaneously-beating right atria was clipped on both end by heart shaped clips, where one end was fixed at the bottom of 10 ml of tissue bath made of physiological saline solution, and temperature maintained at 37° C. The other end of the atria was connected to a force transducer, and isometric contractions and beating rate of the right atria were recorded by COULBOURN AT-High-Speed VideoFigure. After the samples were given 250 mg of contractions and reach equilibrium the following experiments were carried out: • (a) β-adrenoceptor blocking action
Cumulative administration interval was when the previous concentration reached its greatest effect, the next concentration would be immediately given.
The equation is as follows: pA2=−Log KB Log(DRADJ−1)=nlog[B]−LogKB [formula]
[B] Test compound concentration in moles • KB: equilibrium dissociation constant • n: value of slope DR: test EC50 divided by control EC50 • CF: EC50 of second or third control groups divided by EC50 of first control group (c) Effect of Compound on the Increase of Spontaneous Beating in Right Atrium Caused by CaCl2

isolated atria = test: Direct effect (intrinsic sympathomimetic activity) on reserpine pretreated isolated atria; design: species or system Wistar rat; settings: for direct effect on right atrium beating rate and left atrium isometric contractions: cumulative administration, reserpine pretreated
Method: Wistar rats of weight between 200˜300 gm were used. 18˜24 hours before the experiment, 5 mg/kg of reserpine was injected via abdominal cavity to remove all endogenous catecholamines. Prior experiment, Wistar rats were sacrificed, the heart was immediately removed and placed in Kreb's solution aerated with air mixture and maintained at room temperature. The right and left atria were carefully separated.

[2] = Heart rate and blood pressure in living rat; assay type: in vivo, Wistar rats; settings: 1 mg/kg via femoral vein, anaesthetized rat
Description: Male Wistar rats, weighing 200˜300 g were abdominal anaesthetized with pentobarbital sodium. Tracheal was cannulated to maintain normal respiration. Polyethylene tube was inserted into the left femoral vein to facilitate drug administration. A 3-way stopcock was used, with one end connected to a syringe for drug injection, while the other end was connected to the syringe filled with physiological saline. The latter was used to prevent residual drugs in the polyethylene tube after injection, which would affect experimental accuracy.
The right femoral artery was also inserted with polyethylene, and a 3-way stopcock was used too, where one end was connected to heparin solution to prevent embolism. The other end was connected to a Disposable Diaphragm Dome, TA1019, and linked to a transducer. Through an amplifier, a recorder recorded the overall and average arterial pressure; heart rate to evaluate the effect of drug on blood pressure and heart rate.

thoracic aorta = test: Isolated thoracic aorta contraction caused by 75 mM KCl; design: species or system Wistar rat; settings: 10^−8M; 75 mM KCl contraction
Method: After sacrificing Wistar rat of weight between 300-500 gm, the thoracic aorta was immediately removed and placed in cold Kreb's solution. The fatty connecting tissue surrounding the vessel wall was removed and the thoracic aorta was cut into rings of length 5 mm. The two ends of each ring was pieced and fixed with “Z” shaped platinum wires. […] The sample was given 1 gm of tension and equilibrated for 60 minutes before the following experiments were carried out:
After thoracic aorta had reached equilibrium in the tissue trough, the normal Kreb's solution in the trough was replaced with 75 mM KCl solution to induce vasoconstriction. When the results had been recorded for at least 35 minutes, the aorta was repeatedly rinsed with normal Kreb's solution. After the aorta had re-equilibrated and at least rested for 60 minutes, different concentrations (10^−8, 10^−7, 10^−6, and 10^−5M) of compound 1 were separately added. 30 minutes later, 75 mM KCl was added again to induce vasoconstriction. This method was used to compare the differences in contraction induced by 75 mM KCl on thoracic aorta pre-treated and non-treated with compound 1.
0.1 μM of BayK8644 was first added into the tissue trough. 10 minutes later, 75 mM of concentrated Potassium solution was added to induce thoracic aorta contraction. When vasoconstriction had reached stability, different concentrations of (10^−8, 10^−7, 10^−6, and 10^−5M) compound 1 were separately added. The effects of aorta contraction induced by concentrated Potassium solution were observed.

β2 = target: T3, β2 (Cavia porcellus, UniProt Q8K4Z4); test: Guinea pig's isolated tracheal, L-isoproterenol relaxation of carbachol contraction (pA2)
T3 construct: a portion of tracheal approximately 4 cm long was removed; from tissue; host or cells: isolated trachea of reserpine-pretreated guinea pigs
Method: Guinea pigs of weight between 300˜500 gm were used. […] After the guinea pigs were sacrificed, a slit was made along the neck, and a portion of tracheal approximately 4 cm long was removed. […] The two ends of the tracheal were clamped with frog-heart shaped clamps, one end was fixed at the bottom of tissue bath filled with 20 ml of Kreb's solution, maintained at 37° C., while the other end was connected to a force transducer. Through a COULBOURN AT-High-Speed Videograph, long isometric contractions were recorded. After the sample was given 1.5 gm of tension and equilibrated, the following experiments were performed:
Then the tracheal was repeatedly washed with Kreb's solution for 20 minutes and 10−6 M of carbochol was added to cause contraction in the guinea pig's tracheal. […] This is the test group.
(b) Calculation of pA2: similar to the calculation method for isolated right atrium experiment.

β-adrenoreceptor (β1) [3] = target: T2, β-adrenoreceptor (β1); test: Isolated left atrium, L-isoproterenol-induced contractility increase (pA2); design: species or system Wistar rat
Method: The inspontaneously-beating left atrial tissue was obtained from rat's isolated right atrial tissue experiments. […] The contraction rate was 1 Hz and the resting tension 0.5 gm. After 60 minutes of equilibration, the following experiments were performed:
(a) Completion of cumulative concentration-response curve: similar to experimental method on isolated right atrium;
(b) Calculation of pA2 value: similar to calculation method on isolated right atrium.

Calcium = Calcium antagonism (pKCa^−1, Table 2)

T2 sequence (P18090 whole entry): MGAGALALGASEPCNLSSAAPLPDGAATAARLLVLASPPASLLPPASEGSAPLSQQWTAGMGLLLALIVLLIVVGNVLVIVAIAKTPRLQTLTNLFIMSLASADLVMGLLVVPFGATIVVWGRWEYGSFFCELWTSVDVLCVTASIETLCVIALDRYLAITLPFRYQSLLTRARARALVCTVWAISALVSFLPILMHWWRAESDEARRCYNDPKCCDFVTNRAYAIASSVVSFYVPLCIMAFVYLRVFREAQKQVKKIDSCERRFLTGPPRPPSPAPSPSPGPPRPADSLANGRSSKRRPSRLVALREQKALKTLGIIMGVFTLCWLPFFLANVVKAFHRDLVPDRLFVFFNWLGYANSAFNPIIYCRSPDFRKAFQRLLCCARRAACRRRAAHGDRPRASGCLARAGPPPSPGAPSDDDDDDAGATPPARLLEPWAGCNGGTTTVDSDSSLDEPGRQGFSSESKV
T3 sequence (Q8K4Z4 whole entry): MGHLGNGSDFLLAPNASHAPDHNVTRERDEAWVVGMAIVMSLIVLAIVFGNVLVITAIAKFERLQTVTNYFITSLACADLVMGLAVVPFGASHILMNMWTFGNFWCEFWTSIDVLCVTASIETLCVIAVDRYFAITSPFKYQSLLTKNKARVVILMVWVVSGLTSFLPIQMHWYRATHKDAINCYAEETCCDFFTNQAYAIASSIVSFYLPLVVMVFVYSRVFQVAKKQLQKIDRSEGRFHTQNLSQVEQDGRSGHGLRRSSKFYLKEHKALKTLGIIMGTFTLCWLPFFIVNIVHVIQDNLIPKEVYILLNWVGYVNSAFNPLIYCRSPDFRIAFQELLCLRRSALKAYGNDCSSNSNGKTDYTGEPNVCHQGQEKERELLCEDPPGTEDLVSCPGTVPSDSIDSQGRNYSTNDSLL
T1 sequence (Q8K4Z4 whole entry): as above

COc1cc(C=O)ccc1OCC(O)CNC(C)(C)C (stereo not drawn) [Vanidilol, reference compound]
direct tracheal relaxation effect (β2-adrenoceptor): dose-dependant tracheal relaxation effect | effect on right atrium relative to tracheal (selectivity ratio of β1 type adrenoceptor) (β-adrenoreceptor (β1) [1]; from average pA2 difference between right atrium and tracheal): 0.98 × | selectivity on the type of β-adrenoceptor (β-adrenoreceptor (β1) [1]; β1:β2): non-selective

CC(C)NCC(O)COc1cccc2ccccc12 (stereo not drawn) [Propranolol]
direct effect on right atrium beating rate and left atrium isometric contractions (isolated atria): could retard the beating rate and isometric contractions

CC(C)NCC(O)COc1ccc(CC(N)=O)cc1 (stereo not drawn) [atenolol]
atrial blocking effect (isolated atria; 3×10−4M): almost does not have atrial blocking effect

CC(C)NC[C@H](O)c1ccc(O)c(O)c1 [L-isoproterenol]
direct effect on right atrium beating rate and left atrium isometric contractions (isolated atria): dose-dependently increase the right atrium beating rate and left atrium isometric contractions

CCOC(=O)C1=C(C)NC(C)=C(C(=O)OCC)C1c1cc(Cl)ccc1OCC(O)CNCCOc1ccccc1OC (stereo not drawn) [Compound 6]
Lowering of Blood Pressure [2]: 80 ± 3 mmHg | Reduction of Heart Rate [2]: 35 ± 5 beats/min | Aorta Relaxation (thoracic aorta): 45 ± 4% | β2 Tracheal (slope) (β2; slope of Schild regression): (0.90 ± 0.19) | β2 Value of pA2 Tracheal (β2; vs L-isoproterenol, carbachol 10^−6 M contraction): 7.31 ± 0.19 | β1 Left Atrium (Slope) (β-adrenoreceptor (β1) [3]; slope of Schild regression): (0.91 ± 0.09) | β1 Value of pA2 Left Atrium (β-adrenoreceptor (β1) [3]; vs L-isoproterenol, electrically stimulated): 7.01 ± 0.28 | Calcium Antagonism PKCa^−1 (Calcium): 8.01 ± 0.45 | Ratio of β1 and Calcium Antagonism (β-adrenoreceptor (β1) [1]): 0.11 | β1/β2 (β-adrenoreceptor (β1) [1]; from pA2 difference right atrium vs tracheal): 1.29 | β1 Right Atrium (Slope) (β-adrenoreceptor (β1) [1]; slope of Schild regression): (0.88 ± 0.12) | β1 Value of pA2 Right Atrium (β-adrenoreceptor (β1) [1]; vs L-isoproterenol, Schild plot): 7.41 ± 0.34
